The supplement of paper PMC11451515

Assays:
Conditions in all cases: 48 h
[1] = tested on: SEM cells; assay: cell viability relative to DMSO control; higher = less cytotoxic
Method in brief: (§1)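 Leukemia cells (NOMO1 or SEM, 500 cells/well; P12-Ichikawa, 1000 cells/well) were seeded in 5 μl in 1536-well plates after at least four passages of adaptation to each medium. They received library compounds in DMSO by pin dosing, 11 threefold points from 47 μM to 0.79 nM. Luminescence with CellTiter-Glo One was read after 48 h at 37°C. Viability is stated per plate relative to DMSO wells, with cell-free wells as background.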

[2] = tested on: NOMO1; assay: AUC of viability dose-response curve (% viability x log10 dose units); higher = less sensitive
Method in brief: (§2)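 Library compounds in DMSO were applied for 48 h at 37°C at 11 threefold doses (47 μM to 0.79 nM) to medium-adapted leukemia cells in 1536-well plates holding 500 or 1000 cells/well. Luminescence from CellTiter-Glo One was normalised plate by plate against DMSO and cell-free wells. Area under the curve came from trapezoidal integration of a log-logistic fit, after scaling curves that rose above full viability and discarding those that failed quality control. The fit had four parameters and used log10 doses.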

[3] = tested on: P12-Ichikawa; assay: as above
Method in brief: as §2

[4] = tested on: SEM cells; assay: as above
Method in brief: as §2

[5] = tested on: NOMO1; assay: cell viability relative to DMSO control; higher = less cytotoxic
Method in brief: as §1

[6] = tested on: P12-Ichikawa; assay: as above
Method in brief: as §1

CC1=CC=C(C=C1)N(C\C2=N\CCN2)C3=CC=CC(=C3)O
[1], HPLM + 10% dialyzed FBS
Conditions | cell viability [%]
0.000781 µM | 118
0.00234 µM | 114
0.00702 µM | 122
0.0211 µM | 120
0.0632 µM | 117
0.19 µM | 126
0.569 µM | 132
1.71 µM | 131
5.12 µM | 131
15.4 µM | 131
46.1 µM | 68.4

AUC of viability dose-response curve
Conditions | [2] | [3] | [4]
HPLM + 10% dialyzed FBS | 352 | 473 | 454
RPMI 5 mM glucose + 10% FBS | 403 | 452 | 464
RPMI 5 mM glucose + 10% dialyzed FBS | 407 | 459 | 468

CN(CCOc1ccc(NS(C)(=O)=O)cc1)CCc1ccc(NS(C)(=O)=O)cc1
cell viability [%]
Conditions | [1] | [5] | [6]
HPLM + 10% dialyzed FBS, 0.000781 µM | 102 | 108 | 108
HPLM + 10% dialyzed FBS, 0.00234 µM | 108 | 126 | 114
HPLM + 10% dialyzed FBS, 0.00702 µM | 105 | 110 | 119
HPLM + 10% dialyzed FBS, 0.0211 µM | 107 | 116 | 115
HPLM + 10% dialyzed FBS, 0.0632 µM | 104 | 136 | 126
HPLM + 10% dialyzed FBS, 0.19 µM | 120 | 138 | 127
HPLM + 10% dialyzed FBS, 0.569 µM | 111 | 147 | 127
HPLM + 10% dialyzed FBS, 1.71 µM | 117 | 133 | 111
HPLM + 10% dialyzed FBS, 5.12 µM | 128 | 131 | 118
HPLM + 10% dialyzed FBS, 15.4 µM | 93.9 | 135 | 123
HPLM + 10% dialyzed FBS, 46.1 µM | 131 | 134 | 121
RPMI 5 mM glucose + 10% FBS, 0.000781 µM | 89.9 | 121 | 118
RPMI 5 mM glucose + 10% FBS, 0.00234 µM | 111 | 119 | 127
RPMI 5 mM glucose + 10% FBS, 0.00702 µM | 101 | 109 | 116
RPMI 5 mM glucose + 10% FBS, 0.0211 µM | 110 | 129 | 126
RPMI 5 mM glucose + 10% FBS, 0.0632 µM | 122 | 117 | 121
RPMI 5 mM glucose + 10% FBS, 0.19 µM | 101 | 120 | 129
RPMI 5 mM glucose + 10% FBS, 0.569 µM | 119 | 135 | 131
RPMI 5 mM glucose + 10% FBS, 1.71 µM | 107 | 120 | 126
RPMI 5 mM glucose + 10% FBS, 5.12 µM | 109 | 141 | 125
RPMI 5 mM glucose + 10% FBS, 15.4 µM | 79.7 | 118 | 136
RPMI 5 mM glucose + 10% FBS, 46.1 µM | 94.6 | 136 | 126
RPMI 5 mM glucose + 10% dialyzed FBS, 0.000781 µM | 85.2 | – | 113
RPMI 5 mM glucose + 10% dialyzed FBS, 0.00234 µM | 95.2 | – | 114
RPMI 5 mM glucose + 10% dialyzed FBS, 0.00702 µM | 102 | – | 114
RPMI 5 mM glucose + 10% dialyzed FBS, 0.0211 µM | 100 | – | 114
RPMI 5 mM glucose + 10% dialyzed FBS, 0.0632 µM | 94 | – | 117
RPMI 5 mM glucose + 10% dialyzed FBS, 0.19 µM | 100 | – | 129
RPMI 5 mM glucose + 10% dialyzed FBS, 0.569 µM | 96.9 | – | 123
RPMI 5 mM glucose + 10% dialyzed FBS, 1.71 µM | 104 | – | 122
RPMI 5 mM glucose + 10% dialyzed FBS, 5.12 µM | 96.1 | – | 120
RPMI 5 mM glucose + 10% dialyzed FBS, 15.4 µM | 56.1 | – | 120
RPMI 5 mM glucose + 10% dialyzed FBS, 46.1 µM | 91.6 | – | 115

AUC of viability dose-response curve
Conditions | [2] | [3] | [4]
HPLM + 10% dialyzed FBS | 451 | 469 | 444
RPMI 5 mM glucose + 10% FBS | 455 | 465 | 463
RPMI 5 mM glucose + 10% dialyzed FBS | 463 | 464 | 447

O=C(NCCO[N+](=O)[O-])c1cccnc1
cell viability [%]
Conditions | [1] | [5] | [6]
HPLM + 10% dialyzed FBS, 0.000781 µM | 99.3 | 112 | 112
HPLM + 10% dialyzed FBS, 0.00234 µM | 64.4 | 124 | 113
HPLM + 10% dialyzed FBS, 0.00702 µM | 107 | 123 | 118
HPLM + 10% dialyzed FBS, 0.0211 µM | 114 | 133 | 122
HPLM + 10% dialyzed FBS, 0.0632 µM | 105 | 137 | 115
HPLM + 10% dialyzed FBS, 0.19 µM | 97.1 | 126 | 117
HPLM + 10% dialyzed FBS, 0.569 µM | 101 | 136 | 115
HPLM + 10% dialyzed FBS, 1.71 µM | 98.7 | 135 | 116
HPLM + 10% dialyzed FBS, 5.12 µM | 108 | 129 | 113
HPLM + 10% dialyzed FBS, 15.4 µM | 105 | 123 | 121
HPLM + 10% dialyzed FBS, 46.1 µM | 115 | 62.3 | 118
RPMI 5 mM glucose + 10% FBS, 0.000781 µM | 100 | – | 112
RPMI 5 mM glucose + 10% FBS, 0.00234 µM | 92.8 | – | 126
RPMI 5 mM glucose + 10% FBS, 0.00702 µM | 112 | – | 120
RPMI 5 mM glucose + 10% FBS, 0.0211 µM | 111 | – | 130
RPMI 5 mM glucose + 10% FBS, 0.0632 µM | 112 | – | 121
RPMI 5 mM glucose + 10% FBS, 0.19 µM | 114 | – | 119
RPMI 5 mM glucose + 10% FBS, 0.569 µM | 96.1 | – | 126
RPMI 5 mM glucose + 10% FBS, 1.71 µM | 102 | – | 126
RPMI 5 mM glucose + 10% FBS, 5.12 µM | 112 | – | 127
RPMI 5 mM glucose + 10% FBS, 15.4 µM | 121 | – | 126
RPMI 5 mM glucose + 10% FBS, 46.1 µM | 108 | – | 118
RPMI 5 mM glucose + 10% dialyzed FBS, 0.000781 µM | 107 | 118 | 112
RPMI 5 mM glucose + 10% dialyzed FBS, 0.00234 µM | 89.6 | 120 | 116
RPMI 5 mM glucose + 10% dialyzed FBS, 0.00702 µM | 112 | 123 | 109
RPMI 5 mM glucose + 10% dialyzed FBS, 0.0211 µM | 109 | 135 | 114
RPMI 5 mM glucose + 10% dialyzed FBS, 0.0632 µM | 97.6 | 127 | 111
RPMI 5 mM glucose + 10% dialyzed FBS, 0.19 µM | 111 | 119 | 123
RPMI 5 mM glucose + 10% dialyzed FBS, 0.569 µM | 96.6 | 133 | 111
RPMI 5 mM glucose + 10% dialyzed FBS, 1.71 µM | 105 | 124 | 112
RPMI 5 mM glucose + 10% dialyzed FBS, 5.12 µM | 110 | 125 | 112
RPMI 5 mM glucose + 10% dialyzed FBS, 15.4 µM | 111 | 125 | 111
RPMI 5 mM glucose + 10% dialyzed FBS, 46.1 µM | 110 | 92.1 | 117

AUC of viability dose-response curve
Conditions | [2] | [3] | [4]
HPLM + 10% dialyzed FBS | 463 | 471 | 461
RPMI 5 mM glucose + 10% FBS | 472 | 474 | 455
RPMI 5 mM glucose + 10% dialyzed FBS | 471 | 475 | 461

Cc1cc(-c2ncc(CC(=O)Nc3ccc(-c4cnccn4)cn3)cc2C)ccn1
AUC of viability dose-response curve
Conditions | [2] | [3] | [4]
HPLM + 10% dialyzed FBS | 445 | 458 | 462
RPMI 5 mM glucose + 10% FBS | 466 | 439 | 458
RPMI 5 mM glucose + 10% dialyzed FBS | 447 | 456 | 457

CCCCCCCCCCCCCCCC(=O)O[C@@H]1[C@@H](O)[C@@H](O)[C@@H]([C@H](NC(=O)[C@@H]2C[C@@H](CCC)CN2C)[C@H](C)Cl)O[C@@H]1SC.Cl
AUC of viability dose-response curve
Conditions | [2] | [3] | [4]
HPLM + 10% dialyzed FBS | 426 | 452 | 470
RPMI 5 mM glucose + 10% FBS | 423 | 456 | 469
RPMI 5 mM glucose + 10% dialyzed FBS | 425 | 442 | 465

CNC1CCCN(c2c(F)cc3c(=O)c(C(=O)O)cn(C4CC4)c3c2OC)C1 (centres undefined)
[1], HPLM + 10% dialyzed FBS
Conditions | cell viability [%]
0.000781 µM | 120
0.00234 µM | 123
0.00702 µM | 131
0.0211 µM | 139
0.0632 µM | 134
0.19 µM | 125
0.569 µM | 133
1.71 µM | 122
5.12 µM | 115
15.4 µM | 117
46.1 µM | 113

AUC of viability dose-response curve
Conditions | HPLM + 10% dialyzed FBS | RPMI 5 mM glucose + 10% FBS | RPMI 5 mM glucose + 10% dialyzed FBS
[3] | 432 | 441 | 443
[4] | 462 | 445 | 456
